In the supplement of paper PMC13207355:
Structures can show the parent of a compound that is named as a salt.

How the values were obtained:
Settings in all cases: exposure time: 72 h
E57 [1] = patient-derived glioblastoma stem cells of mesenchymal subtype; test: phenotypic distance (Euclidean, principal components) from DMSO controls (arbitrary units); higher = stronger morphological change
FT3469 [2] = normal neural stem cell line; test: as above
E13 [3] = patient-derived glioblastoma stem cells of classical subtype; test: as above
E28 [4] = patient-derived glioblastoma stem cells of classical subtype; test: as above
E31 [5] = patient-derived glioblastoma stem cells of proneural subtype; test: as above
E34 [6] = patient-derived glioblastoma stem cells of proneural subtype; test: as above
E21 [7] = patient-derived glioblastoma stem cells of mesenchymal subtype; test: as above
E57 [8] = test: surviving fraction (nuclei count normalised to DMSO); higher = more cells surviving (less toxic)
FT3469 [9] = test: as above
E13 [10] = test: as above
E28 [11] = test: as above
E31 [12] = test: as above
E34 [13] = test: as above
E21 [14] = test: as above
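Throughout, for phenotypic distance (Euclidean, principal components) from DMSO controls: cell Painting imaging in 384-well plates, CellProfiler features reduced to at least 20 principal components, Euclidean distance versus same-plate DMSO vehicle wells (0.1% v/v), median over six images per well.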
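Throughout, for surviving fraction (nuclei count normalised to DMSO): nuclei counted by high-content imaging of Hoechst-stained cells in laminin-coated 384-well plates, relative to 0.1% DMSO vehicle wells, with staurosporine as cell-death control.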

Nc1ccn([C@@H]2O[C@H](CO)[C@@H](O)C2(F)F)c(=O)n1 [Gemcitabine HCl]
Settings | phenotypic distance | surviving fraction
E13 [3], 4.1 nM | 5.82 | –
E13 [3], 12.3 nM | 5.84 | –
E13 [3], 37 nM | 5.64 | –
E13 [3], 111.1 nM | 4.94 | –
E13 [3], 333.3 nM | 6.22 | –
E13 [3], 1000 nM | 5.7 | –
E13 [3], 3000 nM | 5.74 | –
E13 [10], 4.1 nM | – | 0.327
E13 [10], 12.3 nM | – | 0.326
E13 [10], 37 nM | – | 0.331
E13 [10], 111.1 nM | – | 0.351
E13 [10], 333.3 nM | – | 0.32
E13 [10], 1000 nM | – | 0.333
E13 [10], 3000 nM | – | 0.352
E21 [7], 4.1 nM | 4.04 | –
E21 [7], 12.3 nM | 4.48 | –
E21 [7], 37 nM | 4.76 | –
E21 [7], 111.1 nM | 5.02 | –
E21 [7], 333.3 nM | 4.71 | –
E21 [7], 1000 nM | 4.97 | –
E21 [7], 3000 nM | 4.67 | –
E21 [14], 4.1 nM | – | 0.161
E21 [14], 12.3 nM | – | 0.173
E21 [14], 37 nM | – | 0.126
E21 [14], 111.1 nM | – | 0.143
E21 [14], 333.3 nM | – | 0.147
E21 [14], 1000 nM | – | 0.129
E21 [14], 3000 nM | – | 0.0999
E28 [4], 4.1 nM | 3.94 | –
E28 [4], 12.3 nM | 3.54 | –
E28 [4], 37 nM | 3.74 | –
E28 [4], 111.1 nM | 3.43 | –
E28 [4], 333.3 nM | 3.31 | –
E28 [4], 1000 nM | 3.19 | –
E28 [4], 3000 nM | 4.17 | –
E28 [11], 4.1 nM | – | 0.359
E28 [11], 12.3 nM | – | 0.438
E28 [11], 37 nM | – | 0.376
E28 [11], 111.1 nM | – | 0.456
E28 [11], 333.3 nM | – | 0.401
E28 [11], 1000 nM | – | 0.361
E28 [11], 3000 nM | – | 0.264
E31 [5], 4.1 nM | 3.35 | –
E31 [5], 12.3 nM | 2.57 | –
E31 [5], 37 nM | 3.01 | –
E31 [5], 111.1 nM | 2.66 | –
E31 [5], 333.3 nM | 2.37 | –
E31 [5], 1000 nM | 3 | –
E31 [5], 3000 nM | 3.64 | –
E31 [12], 4.1 nM | – | 0.147
E31 [12], 12.3 nM | – | 0.249
E31 [12], 37 nM | – | 0.161
E31 [12], 111.1 nM | – | 0.229
E31 [12], 333.3 nM | – | 0.201
E31 [12], 1000 nM | – | 0.199
E31 [12], 3000 nM | – | 0.161
E34 [6], 4.1 nM | 3.49 | –
E34 [6], 12.3 nM | 2.98 | –
E34 [6], 37 nM | 3.41 | –
E34 [6], 111.1 nM | 4.74 | –
E34 [6], 333.3 nM | 3.17 | –
E34 [6], 1000 nM | 2.85 | –
E34 [6], 3000 nM | 2.83 | –
E34 [13], 4.1 nM | – | 0.494
E34 [13], 12.3 nM | – | 0.545
E34 [13], 37 nM | – | 0.509
E34 [13], 111.1 nM | – | 0.52
E34 [13], 333.3 nM | – | 0.549
E34 [13], 1000 nM | – | 0.496
E34 [13], 3000 nM | – | 0.415
E57 [1], 4.1 nM | 6.66 | –
E57 [1], 12.3 nM | 8.21 | –
E57 [1], 37 nM | 6.89 | –
E57 [1], 111.1 nM | 7.27 | –
E57 [1], 333.3 nM | 7.04 | –
E57 [1], 1000 nM | 7.07 | –
E57 [1], 3000 nM | 6.77 | –
E57 [8], 4.1 nM | – | 0.168
E57 [8], 12.3 nM | – | 0.168
E57 [8], 37 nM | – | 0.156
E57 [8], 111.1 nM | – | 0.165
E57 [8], 333.3 nM | – | 0.139
E57 [8], 1000 nM | – | 0.159
E57 [8], 3000 nM | – | 0.149
FT3469 [2], 4.1 nM | 1.82 | –
FT3469 [2], 12.3 nM | 1.99 | –
FT3469 [2], 37 nM | 2.01 | –
FT3469 [2], 111.1 nM | 2.15 | –
FT3469 [2], 333.3 nM | 1.98 | –
FT3469 [2], 1000 nM | 1.8 | –
FT3469 [2], 3000 nM | 1.5 | –
FT3469 [9], 4.1 nM | – | 0.53
FT3469 [9], 12.3 nM | – | 0.842
FT3469 [9], 37 nM | – | 0.616
FT3469 [9], 111.1 nM | – | 0.663
FT3469 [9], 333.3 nM | – | 0.566
FT3469 [9], 1000 nM | – | 0.568
FT3469 [9], 3000 nM | – | 0.645
